Test results from patent US8574578B2, “Antibodies against PDGFRα to inhibit tumor growth” (ImClone LLC, priority 2006, dated 2013).

Tests used:
[1] = molecular target: murine IGF-IR (Mus musculus, UniProt Q60751); test: Cross-reactivity of A12 with murine IGF-IR; assay type: binding
[2] = system: LuCaP 23.1 xenograft; test: IMC-A12 treatment of LuCaP 23.1 intratibial xenografts (PSA, BMD, radiographs); assay type: in vivo, castrated SCID mice
Protocol: Anti-IGF-IR antibody therapy for bone metastases. The effectiveness of treatment with anti-IGF-IR antibodies on metastatic growth of prostate cancer cells in bone was evaluated using prostate cancer cells injected directly into the tibia of SCID mice. By this method, metastatic tumors are established directly without reliance on chemotaxis dependent invasion from the circulation. A variety of tumor lines are available for establishing bone metastases. These include PC-3, LuCaP35, and LnCaP cells which produce osteolytic lesions and LuCaP 23.1 cells which produce osterblastic lesions.
To evaluate the effectiveness of treatment with IMC-A12, LuCaP 23.1 xenograft tumors were engrafted in SCID mice, and serum PSA levels were measured biweekly to evaluate tumor growth. All animals were castrated two weeks prior to tibial tumor cell engraftment. Administration of IMC-A12 to test mice was begun when serum PSA levels reached 5-10 ng/ml (indicating established tumors). 40 mg/kg IMC-A12 was injected i.p. three times a week for six weeks.
Bone mineral density (BMD) of the tumored tibiae and the contralateral tibiae without tumor was measured by Dual X-ray absorptiometry (PIXImus Lunar densitometer) performed on a 2.5 mm×2.5 mm area at the tumor cell injection site, or the corresponding site of the contralateral tibia at the time of engraftment. Biweekly assessment of lesions was made by serum PSA measurements. All animals were sacrificed when the bone lesions in the control group had recurred after castration based on serum PSA levels (LuCaP 35 >60 ng/ml, ng/ml, LuCaP 23.1 >500 ng/ml), radiographical appearance of the bone lesions or when animals became compromised. One hour prior to sacrifice animals were injected with BrdU to monitor tumor cell proliferation. Radiographs were taken prior to sacrifice (FaxitronX-ray MX-20), and BMD of both tibiae were measured at the time of sacrifice.

[3] = Post-treatment serum levels of A12; assay type: in vivo, SCID mice
Protocol: Serum levels of A12 were measured in animals that had received docetaxel combined with A12.

[4] = system: LuCaP 35V xenograft; test: LuCaP 35V subcutaneous xenograft tumor growth
Protocol: Tumor bits (20 to 30 mm^3) of androgen-independent (AI) LuCaP 35V were implanted subcutaneously (s.c.) into 32 six-week-old castrated SCID mice respectively as previously described (4). […] Group 1 animals received docetaxel treatment at a dose of 20 mg/kg. Group 2 animals received docetaxel treatment at a dose of 10 mg/kg. Group 3 animals received combined treatment of 10 mg/kg docetaxel and 40 mg/kg A12. Group 4 animals received combined treatment of 20 mg/kg docetaxel and 40 mg/kg A12. All treatments were administered intraperitoneally (ip). Docetaxel was administered once a week. A12 was administered three times a week. All animals were treated for four weeks and monitored for additional four weeks before euthanization. Tumors were measured twice weekly and tumor volume was estimated by the formula: volume=L×W^2/2. Following our University of Washington IACUC approved animal protocol, some animals were euthanized at an earlier time when tumor reached a volume of 1000 mm^3 or when animal weight loss exceeded 20% of initial body weight. Animals were weighed twice a week.

[5] = Overall cytotoxicity of coadministration of docetaxel and IMC-A12; assay type: in vivo, SCID mice; settings: compared to control tumor-bearing animals
Protocol: (§1) All treatments were administered intraperitoneally (ip). Docetaxel was administered once a week. A12 was administered three times a week. […] Animals were weighed twice a week. Blood samples were collected from orbital sinus weekly.
Cytotoxicity of coadministration of docetaxel and IMC-A12 was examined.

[6] = system: LuCaP 23.1 human prostate tumor; test: Docetaxel with or without A12, LuCaP 23.1 intratibial xenografts, four weeks; assay type: in vivo, SCID mice
Protocol: LuCaP 23.1 human prostate tumor bits (20 to 30 mm^3) were mechanically digested. 2-5×10^5 viable LuCaP 23.1 cells were injected into the tibiae of 6-8 wk old SCID mice. 21 mice randomized into three groups were used for the study. After tumor injection, serum PSA was monitored weekly. Treatment started when serum PSA level reached 5-10 ng/ml, an indication of tumor growth. Group 1 received control vehicle saline buffer. Group 2 received 20 mg/kg of docetaxel i.p once a week for 4 weeks. Group 3 received 20 mg/kg of docetaxel once a week and 40 mg/kg of A12 i.p. three times a week for 4 weeks. To determine whether the response to treatment was osteoblastic or osteolytic, BMD was measured by Dexa-scan and x-rays of the animals at the end point of all treatments.

[7] = system: LuCaP 35V xenograft; test: TUNEL / propidium staining flow cytometry of tumor cells at time of sacrifice; assay type: in vivo, castrated SCID mice; settings: percentage of tumors; for Apoptosis (%): four weeks after treatment termination; for G1 arrest (%) / G2 arrest (%) / Normal cycle (%): time of sacrifice
Protocol: After euthanization, tumors were collected and halved. A portion of the tumors were fixed in 10% neutral buffer formalin (NFB) and embedded in paraffin. Five micron sections were prepared for immunohistochemistry (IHC) staining. The remaining portion of the tumors was separated into single cells mechanically by mincing and filtering through 70 μm nylon sieves.
The combined in vivo effect of docetaxel and A12 treatment on cell cycle and cell survival at the experimental end point was measured by terminal deoxynucleotidyl transferase-mediated nick end labeling (TUNEL) assay and propidium (PI) staining using the Apop-Direct kit (BD BioScience) as previously described. Briefly, 1×10^6 cells from the single-cell suspension were fixed with 10% neutral buffer formalin (NBF) followed by 70% ethanol alcohol at −20° C. for 30 min. After several washes, cells were permeabilized with 0.1% Triton X-100 and incubated with FITC-conjugated dUTP and terminal deoxynucleotidyl transferase enzyme (TdT) at 37° C. for 1 h, followed by an incubation with PI/RNase buffer (100 μg/ml of PI, 50 μg/ml RNase) at room temperature for 60 min. Samples were analyzed by flow cytometry using a BD FACscan. Data were analyzed with CellQuest^PRO software.

[8] = system: LuCaP 23.1 prostate cancer cells; test: IMC-A12 + docetaxel, LuCaP 23.1 tibial bone metastases, six weeks (present-tense example); assay type: in vivo, castrated SCID mice; settings: weekly PSA, during and after six weeks of treatment
Protocol: SCID mice are castrated 2 weeks prior to tibial tumor injections. Bone metastases are generated by direct injection of LuCaP 23.1 prostate cancer cells into the tibia of the mice, giving rise to osteoblastic lesions. The xenografts express IGF-IR. Serum PSA levels are measured biweekly to evaluate tumor growth. When serum PSA levels reach 5-10 ng/ml indicating established tumor, animals are randomized into four groups.
In two groups, 40 mg/kg of IMC-A12 are injected i.p. three times a week for six weeks with one group receiving IMC-A12+docetaxel 20 mg/kg i.p once a week for 6 weeks and a second group IMC-A12+docetaxel 10 mg i.p. three times a week for 6 weeks. Control groups receive 10 or 20 mg docetaxel i.p. without IMC-A12.
Animals are monitored with weekly PSA measurements. After termination of treatment, animals continue to be monitored with weekly PSA measurements until tumors in the docetaxel only groups show tumor regrowth. […] Reductions in PSA levels are observed to continue, even after termination of treatment at six weeks.
As indicated above, BMD measurements are made at the time of engraftment and at sacrifice, and radiographs are taken just prior to sacrifice.

[9] = system: LuCaP 35V xenograft; test: Serum PSA in mice carrying LuCaP 35V xenografts (IMx Total PSA Assay); assay type: in vivo, castrated SCID mice
Protocol: as §1

[10] = system: Akt phosphorylation in PC3-ML cells; test: Akt phosphorylation in PC3-ML cells (Western blot); assay type: cell-based, human; settings: 20 μM AG-1296
Protocol: Bone marrow samples from normal male donors (ages 18-45) were supplied by Cambrex (Poietics™ Donor Program). Samples were centrifuged at 1,500 rpm in order to separate the soluble and cellular phases. The supernatant was filtered using 0.8 μm and 0.22 μm filters in succession. 50 μl of bone marrow aspirate was administered to cells in 1 ml of medium (1:20 final dilution).
For experiments performed in the presence of serum, cells were cultured in DMEM supplemented with 10% FBS and 50 μg/ml gentamycin for 24 hours prior to exposure to bone marrow. For experiments in the absence of serum (starved cells), cells were washed twice with PBS, the growth medium was replaced with serum-free DMEM, and the cells were incubated for 4 hours prior to exposure to bone marrow preparations. When used, AG-1296, a specific inhibitor of PDGF receptors (Rice et al., 1999, Amer. J. Path. 155, 213-21) was added to cultures 30 min. prior to exposure to bone marrowaspirate. IMC-3G3 antibodies were administered as described at pre-treatment times as stated below.

[11] = 40 mg/kg IMC-A12 i.p. three times a week for six weeks, at sacrifice

murine IGF-IR, sequence (Q60751 31-1373): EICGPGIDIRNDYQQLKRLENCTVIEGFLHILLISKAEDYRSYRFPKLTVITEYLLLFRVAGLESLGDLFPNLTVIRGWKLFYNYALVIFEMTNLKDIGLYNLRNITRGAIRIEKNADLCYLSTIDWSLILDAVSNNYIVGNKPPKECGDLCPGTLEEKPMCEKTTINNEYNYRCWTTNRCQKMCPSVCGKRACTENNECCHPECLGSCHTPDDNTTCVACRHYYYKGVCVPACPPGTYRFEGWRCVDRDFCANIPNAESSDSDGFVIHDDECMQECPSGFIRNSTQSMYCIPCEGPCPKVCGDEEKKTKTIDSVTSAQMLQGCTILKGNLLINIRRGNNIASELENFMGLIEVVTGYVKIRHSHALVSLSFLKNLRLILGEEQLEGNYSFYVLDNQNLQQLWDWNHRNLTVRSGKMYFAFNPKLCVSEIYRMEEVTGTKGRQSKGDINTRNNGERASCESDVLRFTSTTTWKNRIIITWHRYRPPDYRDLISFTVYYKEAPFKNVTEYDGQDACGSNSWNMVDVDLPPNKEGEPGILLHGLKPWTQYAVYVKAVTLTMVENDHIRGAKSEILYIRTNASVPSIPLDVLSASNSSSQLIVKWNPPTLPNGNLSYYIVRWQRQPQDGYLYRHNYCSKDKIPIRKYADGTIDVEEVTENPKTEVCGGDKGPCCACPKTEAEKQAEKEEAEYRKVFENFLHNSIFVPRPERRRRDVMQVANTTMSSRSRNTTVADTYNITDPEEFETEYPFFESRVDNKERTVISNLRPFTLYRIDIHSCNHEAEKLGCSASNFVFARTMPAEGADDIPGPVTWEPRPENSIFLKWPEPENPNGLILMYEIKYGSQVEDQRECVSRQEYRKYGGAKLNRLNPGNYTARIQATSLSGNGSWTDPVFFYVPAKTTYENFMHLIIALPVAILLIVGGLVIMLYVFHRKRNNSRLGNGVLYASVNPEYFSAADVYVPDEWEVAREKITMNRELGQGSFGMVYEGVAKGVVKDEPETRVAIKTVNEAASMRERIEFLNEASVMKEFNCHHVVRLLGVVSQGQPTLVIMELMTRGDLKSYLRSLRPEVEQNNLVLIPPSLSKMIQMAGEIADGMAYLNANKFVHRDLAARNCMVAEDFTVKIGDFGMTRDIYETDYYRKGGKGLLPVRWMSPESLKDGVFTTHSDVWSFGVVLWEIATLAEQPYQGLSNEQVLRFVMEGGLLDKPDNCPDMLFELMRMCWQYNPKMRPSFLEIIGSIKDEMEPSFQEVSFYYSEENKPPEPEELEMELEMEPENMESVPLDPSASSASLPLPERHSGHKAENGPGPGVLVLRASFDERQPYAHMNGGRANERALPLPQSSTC

Q: Which “cross-reactivity with murine IGF-IR” value [1] does the source give for “IMC-A12: human IgG1 anti-IGF-IR antibody; heavy chain variable domain SEQ ID NO:41, light chain variable domain SEQ ID NO:51” here?
A: greater than 95%

Q: What about the “loss of bone density (osteoporosis), non-tumored legs” value ([2]; 40 mg/kg IMC-A12) of the same compound?
A: did not cause a loss of bone density

Q: What about the “Bone mineral density (BMD), Non-tumored leg, Mean” value [2, 11] of the same compound?
A: 0.045

Q: What about the “Bone mineral density (BMD), Tumored Leg, Mean” value [2, 11] of the same compound?
A: significantly reduced

Q: What about the “Bone mineral density (BMD), Tumored Leg, Mean” value ([2]; 40 mg/kg IMC-A12 i.p. three times a week for six weeks, at sacrifice, listed as A12) of the same compound?
A: 0.060

Q: And the “Serum PSA levels” value ([2]; 40 mg/kg IMC-A12 vs untreated)?
A: significantly lower

Q: What about the “tumor progression on radiographs” value ([2]; 40 mg/kg IMC-A12 vs untreated) of the same compound?
A: significantly reduced or prevented

Q: What about the “serum A12 level” value ([3]; four weeks after treatment cessation) of the same compound?
A: very low level

Q: What about the “decline of serum A12 levels” value ([3]; two weeks after treatment cessation, animals received docetaxel combined with A12) of the same compound?
A: 100 fold

Q: Which results are given for `CC(=O)O[C@@]12CO[C@@H]1C[C@H](O)[C@@]1(C)C(=O)[C@H](O)C3=C(C)[C@@H](OC(=O)[C@H](O)[C@@H](NC(=O)OC(C)(C)C)c4ccccc4)C[C@@](O)([C@@H](OC(=O)c4ccccc4)[C@H]21)C3(C)C` [docetaxel]?
A: rate of tumor volume increase in the four weeks following treatment termination ([4]; docetaxel 20 mg/kg alone): 27.0±16.1 mm^3/week; tumor volume during the four-week treatment period ([4]; docetaxel 20 mg/kg with or without combined A12): tumor volume did not increase; tumor growth rate during treatment ([4]; four-week ip treatment, A12 alone 40 μg/kg as printed, docetaxel 10 mg/kg, docetaxel 10 mg/kg + A12): 29.6±6.1 mm^3/week; daily activity or behavior [5]: no abnormal daily activity or behavior changes; LuCaP 23.1 tumor growth as reflected by serum PSA levels during treatment ([6]; docetaxel 20 mg/kg once a week, A12 40 mg/kg three times a week, 4 weeks): significantly inhibited; serum PSA after treatment cessation ([6]; docetaxel 20 mg/kg, A12 40 mg/kg): began to increase; average bone density (mean±SEM) ([6]; week five, docetaxel 20 mg/kg, A12 40 mg/kg): 0.09±0.02; Apoptosis (%) ([7]; docetaxel 10 mg/kg groups): No apoptosis; Apoptosis (%) ([7]; docetaxel 10 mg/kg groups, listed as Doc (10)): 0%; G1 arrest (%) ([7]; docetaxel 10 mg/kg groups): 0%; G2 arrest (%) ([7]; docetaxel 10 mg/kg groups): 12%; Normal cycle (%) ([7]; docetaxel 10 mg/kg groups): 88%; Apoptosis (%) ([7]; docetaxel 20 mg/kg groups): No apoptosis; Apoptosis (%) ([7]; docetaxel 20 mg/kg groups, listed as Doc (20)): 0%; G1 arrest (%) ([7]; docetaxel 20 mg/kg groups): 0%; G2 arrest (%) ([7]; docetaxel 20 mg/kg groups): 0%; Normal cycle (%) ([7]; docetaxel 20 mg/kg groups): 100%; PSA levels [8]: rise; serum PSA level during the four-week treatment ([9]; A12 + docetaxel, or 20 mg/kg docetaxel alone): no significant change; serum PSA level after treatment termination ([9]; mouse, in vivo): increased

Q: With `COc1cc2ncc(-c3ccccc3)nc2cc1OC` [AG-1296, reference compound] as the compound, how does the “inhibition of bone marrow aspirate induced Akt activation” value [10] read?
A: more than 40%

Q: And the “inhibition of PDGF-BB induced Akt activation” value ([10]; 30 ng/ml PDGF-BB)?
A: completely inhibits
